Measurements: ChEMBL document CHEMBL4813932, “Terpenoid Constituents of Perovskia artemisioides Aerial Parts with Inhibitory Effects on Bacterial Biofilm Growth” (2021)

How the values were obtained:
Experiment in all cases: microbe, parasite or virus in culture
Format in all cases: functional
Listeria monocytogenes [1] = conditions: ATCC 7644, time 48 hrs
Description: Antibiofilm activity against Listeria monocytogenes ATCC 7644 assessed as inhibition of biofilm formation at 4 ug/ml measured after 48 hrs by crystal violet staining based assay relative to control

Pseudomonas aeruginosa [2] = conditions: ATCC 50071, time 48 hrs
Description: Antibiofilm activity against Pseudomonas aeruginosa ATCC 50071 assessed as inhibition of biofilm formation at 4 ug/ml measured after 48 hrs by crystal violet staining based assay relative to control

Staphylococcus aureus [3] = conditions: ATCC 25923, time 48 hrs
Description: Antibiofilm activity against Staphylococcus aureus ATCC 25923 assessed as inhibition of biofilm formation at 4 ug/ml measured after 48 hrs by crystal violet staining based assay relative to control

Acinetobacter baumannii [4] = conditions: ATCC 19606 = CIP 70.34 = JCM 6841, time 48 hrs
Description: Antibiofilm activity against Acinetobacter baumannii ATCC 19606 assessed as inhibition of biofilm formation at 4 ug/ml measured after 48 hrs by crystal violet staining based assay relative to control

[5] = system: Pectobacterium carotovorum; conditions: ATCC 15713, time 48 hrs
Description: Antibiofilm activity against Pectobacterium carotovorum ATCC 15713 assessed as inhibition of biofilm formation at 4 ug/ml measured after 48 hrs by crystal violet staining based assay relative to control

Listeria monocytogenes [6] = conditions: ATCC 7644, time 48 hrs; remark: listed apart in the source
Description: Antibiofilm activity against Listeria monocytogenes ATCC 7644 assessed as inhibition of biofilm formation at 8 ug/ml measured after 48 hrs by crystal violet staining based assay relative to control

Pseudomonas aeruginosa [7] = conditions: ATCC 50071, time 48 hrs; remark: listed apart in the source
Description: Antibiofilm activity against Pseudomonas aeruginosa ATCC 50071 assessed as inhibition of biofilm formation at 8 ug/ml measured after 48 hrs by crystal violet staining based assay relative to control

Staphylococcus aureus [8] = conditions: ATCC 25923, time 48 hrs; remark: listed apart in the source
Description: Antibiofilm activity against Staphylococcus aureus ATCC 25923 assessed as inhibition of biofilm formation at 8 ug/ml measured after 48 hrs by crystal violet staining based assay relative to control

Acinetobacter baumannii [9] = conditions: ATCC 19606 = CIP 70.34 = JCM 6841, time 48 hrs; remark: listed apart in the source
Description: Antibiofilm activity against Acinetobacter baumannii ATCC 19606 assessed as inhibition of biofilm formation at 8 ug/ml measured after 48 hrs by crystal violet staining based assay relative to control

[10] = system: Pectobacterium carotovorum; conditions: ATCC 15713, time 48 hrs; remark: listed apart in the source
Description: Antibiofilm activity against Pectobacterium carotovorum ATCC 15713 assessed as inhibition of biofilm formation at 8 ug/ml measured after 48 hrs by crystal violet staining based assay relative to control

Escherichia coli [11] = conditions: DSM 8579, time 48 hrs
Description: Antibiofilm activity against Escherichia coli DSM 8579 assessed as inhibition of biofilm formation at 40 ug/ml measured after 48 hrs by crystal violet staining based assay relative to control

Escherichia coli [12] = conditions: DSM 8579, time 48 hrs; remark: listed apart in the source
Description: Antibiofilm activity against Escherichia coli DSM 8579 assessed as inhibition of biofilm formation at 80 ug/ml measured after 48 hrs by crystal violet staining based assay relative to control

Listeria monocytogenes [13] = conditions: ATCC 7644, time 48 hrs; remark: listed apart in the source
Description: Antibiofilm activity against Listeria monocytogenes ATCC 7644 assessed as inhibition of bacterial metabolism within the biofilm at 4 ug/ml measured after 48 hrs by MTT assay relative to control

Pseudomonas aeruginosa [14] = conditions: ATCC 50071, time 48 hrs; remark: listed apart in the source
Description: Antibiofilm activity against Pseudomonas aeruginosa ATCC 50071 assessed as inhibition of bacterial metabolism within the biofilm at 4 ug/ml measured after 48 hrs by MTT assay relative to control

Staphylococcus aureus [15] = conditions: ATCC 25923, time 48 hrs; remark: listed apart in the source
Description: Antibiofilm activity against Staphylococcus aureus ATCC 25923 assessed as inhibition of bacterial metabolism within the biofilm at 4 ug/ml measured after 48 hrs by MTT assay relative to control

Acinetobacter baumannii [16] = conditions: ATCC 19606 = CIP 70.34 = JCM 6841, time 48 hrs; remark: listed apart in the source
Description: Antibiofilm activity against Acinetobacter baumannii ATCC 19606 assessed as inhibition of bacterial metabolism within the biofilm at 4 ug/ml measured after 48 hrs by MTT assay relative to control

[17] = system: Pectobacterium carotovorum; conditions: ATCC 15713, time 48 hrs; remark: listed apart in the source
Description: Antibiofilm activity against Pectobacterium carotovorum ATCC 15713 assessed as inhibition of bacterial metabolism within the biofilm at 4 ug/ml measured after 48 hrs by MTT assay relative to control

Listeria monocytogenes [18] = conditions: ATCC 7644, time 48 hrs; remark: listed apart in the source
Description: Antibiofilm activity against Listeria monocytogenes ATCC 7644 assessed as inhibition of bacterial metabolism within the biofilm at 8 ug/ml measured after 48 hrs by MTT assay relative to control

Pseudomonas aeruginosa [19] = conditions: ATCC 50071, time 48 hrs; remark: listed apart in the source
Description: Antibiofilm activity against Pseudomonas aeruginosa ATCC 50071 assessed as inhibition of bacterial metabolism within the biofilm at 8 ug/ml measured after 48 hrs by MTT assay relative to control

Staphylococcus aureus [20] = conditions: ATCC 25923, time 48 hrs; remark: listed apart in the source
Description: Antibiofilm activity against Staphylococcus aureus ATCC 25923 assessed as inhibition of bacterial metabolism within the biofilm at 8 ug/ml measured after 48 hrs by MTT assay relative to control

Acinetobacter baumannii [21] = conditions: ATCC 19606 = CIP 70.34 = JCM 6841, time 48 hrs; remark: listed apart in the source
Description: Antibiofilm activity against Acinetobacter baumannii ATCC 19606 assessed as inhibition of bacterial metabolism within the biofilm at 8 ug/ml measured after 48 hrs by MTT assay relative to control

[22] = system: Pectobacterium carotovorum; conditions: ATCC 15713, time 48 hrs; remark: listed apart in the source
Description: Antibiofilm activity against Pectobacterium carotovorum ATCC 15713 assessed as inhibition of bacterial metabolism within the biofilm at 8 ug/ml measured after 48 hrs by MTT assay relative to control

Escherichia coli [23] = conditions: DSM 8579, time 48 hrs; remark: listed apart in the source
Description: Antibiofilm activity against Escherichia coli DSM 8579 assessed as inhibition of bacterial metabolism within the biofilm at 40 ug/ml measured after 48 hrs by MTT assay relative to control

Escherichia coli [24] = conditions: DSM 8579, time 48 hrs; remark: listed apart in the source
Description: Antibiofilm activity against Escherichia coli DSM 8579 assessed as inhibition of bacterial metabolism within the biofilm at 80 ug/ml measured after 48 hrs by MTT assay relative to control

Row | SMILES | inhibition at 4 µg/mL (Listeria monocytogenes [1]) | inhibition at 4 µg/mL (Pseudomonas aeruginosa [2]) | inhibition at 4 µg/mL (Staphylococcus aureus [3]) | inhibition at 4 µg/mL (Acinetobacter baumannii [4]) | inhibition at 4 µg/mL [5] | inhibition at 8 µg/mL (Listeria monocytogenes [6]) | inhibition at 8 µg/mL (Pseudomonas aeruginosa [7]) | inhibition at 8 µg/mL (Staphylococcus aureus [8]) | inhibition at 8 µg/mL (Acinetobacter baumannii [9]) | inhibition at 8 µg/mL [10] | inhibition at 40 µg/mL (Escherichia coli [11]) | inhibition at 80 µg/mL (Escherichia coli [12]) | inhibition at 4 µg/mL (Listeria monocytogenes [13]) | inhibition at 4 µg/mL (Pseudomonas aeruginosa [14]) | inhibition at 4 µg/mL (Staphylococcus aureus [15]) | inhibition at 8 µg/mL (Listeria monocytogenes [18]) | inhibition at 8 µg/mL (Pseudomonas aeruginosa [19]) | inhibition at 8 µg/mL (Staphylococcus aureus [20]) | inhibition at 40 µg/mL (Escherichia coli [23]) | inhibition at 80 µg/mL (Escherichia coli [24]) | other results
1 | CC(C)c1cc2c(c(O)c1O)[C@@]13CCCC(C)(C)[C@@H]1[C@H](OC3=O)[C@@H]2O [EPIROSMANOL] | 0% | 70.7% | 68.4% | 26.3% | 33.6% | 63.4% | 74.8% | 81.7% | 56.9% | 53.8% | 0% | 11.3% | 24.7% | 0% | 0% | 55.6% | 9.2% | 23.6% | 0% | 0% | inhibition at 4 µg/mL (Acinetobacter baumannii [16]): 8.9%; inhibition at 4 µg/mL [17]: 32.5%; inhibition at 8 µg/mL (Acinetobacter baumannii [21]): 11.1%; inhibition at 8 µg/mL [22]: 56.3%
2 | CC(C)c1cc2c(c(O)c1O)[C@@]13CCCC(C)(C)[C@@H]1[C@H](OC3=O)[C@H]2O [ROSMANOL] | 47.3% | 68.4% | 45.1% | 44.2% | 0% | 68.7% | 73.1% | 79.9% | 55.5% | 26.2% | 0% | 0% | 24.9% | 3.7% | 63.8% | 39.8% | 9.5% | 70.6% | 0% | 0% | inhibition at 4 µg/mL (Acinetobacter baumannii [16]): 6.9%; inhibition at 4 µg/mL [17]: 45.6%; inhibition at 8 µg/mL (Acinetobacter baumannii [21]): 20.3%; inhibition at 8 µg/mL [22]: 46.6%
3 | CC(C)c1cc2c(c(O)c1O)[C@@]13CCCC(C)(C)[C@@H]1[C@@H](O)[C@@H]2OC3=O [ISOROSMANOL] | 25% | 75.4% | 0% | 13.2% | 66.3% | 63.9% | 80.5% | 56.2% | 43.9% | 66.9% | 42.9% | 53% | 16.2% | 0% | 0% | 25.2% | 14.7% | 17% | 42.2% | 52.1% | inhibition at 4 µg/mL (Acinetobacter baumannii [16]): 2.5%; inhibition at 4 µg/mL [17]: 56.4%; inhibition at 8 µg/mL (Acinetobacter baumannii [21]): 48.5%; inhibition at 8 µg/mL [22]: 62.8%
4 | CC(C)c1cc2c(c(O)c1O)C[C@@]1(O)[C@@H](O)CCC(C)(C)[C@@H]1CC2 | 0% | 33.4% | 39.3% | 48.6% | 0% | 0% | 65.7% | 79.7% | 51.7% | 0% | 0% | 0% | 9.6% | 0% | 75.8% | 13.1% | 0% | 78.2% | 0% | 0% | inhibition at 4 µg/mL (Acinetobacter baumannii [16]): 0%; inhibition at 4 µg/mL [17]: 0%; inhibition at 8 µg/mL (Acinetobacter baumannii [21]): 96.7%; inhibition at 8 µg/mL [22]: 1.5%
5 | C=C1CC/C=C(/C)[C@H](O)C[C@@H]2[C@@H]1CC2(C)CO (stereo partly drawn) | 13.7% | 18.2% | 0% |  |  | 51.1% | 34.3% | 34.9% |  |  | 27.4% | 43.1% | 22.4% | 27.4% | 27.7% | 36.8% | 43.1% | 31.1% | 13.9% | 45.4% | 
6 | CC(C)c1cc2c(c(O)c1O)[C@@]13CCCC(C)(C)[C@@H]1C[C@@H]2OC3=O [CARNOSOL] | 17.2% | 39% | 95.9% | 43.2% | 49.1% | 46.7% | 88.5% | 100% | 47.2% | 100% | 0% | 0% | 27.6% | 0% | 68.2% | 40.4% | 5.4% | 84.8% | 0% | 0% | inhibition at 4 µg/mL (Acinetobacter baumannii [16]): 7.1%; inhibition at 4 µg/mL [17]: 35.8%; inhibition at 8 µg/mL (Acinetobacter baumannii [21]): 49%; inhibition at 8 µg/mL [22]: 69.1%
7 | COc1cc2oc(-c3ccc(O)cc3)cc(=O)c2c(O)c1OC [CIRSIMARITIN] | 54% | 47.9% | 0% |  |  | 65.2% | 83.7% | 6.6% |  |  | 37.7% | 65.3% | 26.9% | 0% | 0% | 39% | 40.2% | 52.6% | 44.2% | 50% | 
8 | CC1(C)C[C@H]2[C@H]1CC[C@@]1(C)C[C@@]2(O)CC[C@@H]1O | 14.8% | 0% | 0% |  |  | 38.7% | 4% | 0% |  |  | 0% | 23.9% | 0% | 0% | 0% | 23.9% | 4% | 0% | 0% | 18.2% | 
9 | CC1(C)C[C@H]2[C@H]1CC[C@]1(C)C[C@]2(O)CC[C@@H]1O | 8.7% | 42.4% | 0% |  |  | 25.7% | 53.6% | 17.9% |  |  | 24.3% | 71.9% | 31.1% | 0% | 33.3% | 42.2% | 24.6% | 48.6% | 38.3% | 57.8% | 
10 | CC(C)c1cc2c(c(O)c1O)C1=C(CC2)C(C)(C)CCC1=O [SAGEONE] | 0% | 0% | 0% |  |  | 0.9% | 0% | 0% |  |  | 13.7% | 45.5% | 0% | 0% | 0% | 0.9% | 0% | 0% | 6.8% | 24.6% | 
11 | COc1c(C(C)C)cc2c(c1O)[C@]1(C(=O)O)CCCC(C)(C)[C@@H]1CC2 (relative stereo) | 6.5% | 27.2% | 0% |  |  | 17.8% | 46.8% | 8% |  |  | 92.6% | 92.8% | 6.5% | 27.2% | 0% | 17.8% | 46.8% | 8% | 46.3% | 89.1% | 
12 | C=CC(C)(O)C/C=C/C(C)(C)O (stereo not drawn) | 78% | 75.9% | 13.3% |  |  | 85% | 84.7% | 40.7% |  |  | 30.4% | 78.6% | 9.1% | 68.1% | 42.2% | 38.1% | 71.3% | 44.4% | 52% | 64% | 
13 | CO[C@H]1c2cc(C(C)C)c(O)c(O)c2[C@@]23CCCC(C)(C)[C@@H]2[C@@H]1OC3=O | 16.2% | 14.7% | 23.5% |  |  | 23.8% | 84.7% | 63.3% |  |  | 32.9% | 47.4% | 0% | 3.1% | 9.4% | 29.8% | 30.9% | 22.9% | 0% | 27.3% | 
